Measurements reported in BindingDB's records for doi:10.1021/acsmedchemlett.6b00306 (The University of Queensland, 2016).
pIC50: −log10 of the molar value.

Target: T1, Proteinase-activated receptor 2 (Homo sapiens, UniProt P55085)
T1 sequence (P55085 whole entry): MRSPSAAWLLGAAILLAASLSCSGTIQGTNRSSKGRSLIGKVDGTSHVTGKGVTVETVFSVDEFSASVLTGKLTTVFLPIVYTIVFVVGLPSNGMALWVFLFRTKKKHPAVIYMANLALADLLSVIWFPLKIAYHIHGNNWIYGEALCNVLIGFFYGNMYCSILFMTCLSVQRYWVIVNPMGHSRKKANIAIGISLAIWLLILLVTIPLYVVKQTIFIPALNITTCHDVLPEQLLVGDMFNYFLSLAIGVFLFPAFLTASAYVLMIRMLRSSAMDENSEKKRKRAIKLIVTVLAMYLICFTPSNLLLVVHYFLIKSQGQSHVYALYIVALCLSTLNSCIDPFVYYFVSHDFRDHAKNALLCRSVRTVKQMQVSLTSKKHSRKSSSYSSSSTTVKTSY
Assay: Antagonist activity at PAR2 in human HT-29 cells assessed as inhibition of 2f-LIGRLO-NH2-stimulated intracellular calcium release preincubated for 30 mins followed by 2f-LIGRLO-NH2 stimulation measured for 60 sec by Fluo-3 AM dye based FLIPR assay

CC[C@H](C)[C@H](NC(=O)[C@H](CC1CCCCC1)NC(=O)c1ccno1)C(=O)N1CCCC[C@H]1C(=O)NC(C)(C)C
pIC50: 5.10
